Results: PubChem BioAssay AID248 (DTP/NCI, 2004)
Several values for one entry are separate records, joined by “and”; a condition that tells them apart may be missing. Equal entries are not always repeated. Toxic doses and inconclusive results are not listed. No stated cut-off is given here; in the data, active means T/C of 150% or more; inactive means T/C below 125%.

Test system: L1210 leukemia ip in BDF1 mice, survival T/C
Assay: NCI In Vivo Anticancer Drug Screen. Data for tumor model L1210 Leukemia (intraperitoneal) in B6D2F1 (BDF1) mice
Conditions: endpoint: mean survival time, higher = longer survival
How it was run: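 Tumor was transplanted into mice, which were then dosed with test compound or vehicle alone. Survival was recorded for each group, and the treated figure was expressed relative to the control figure.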

[1] = dose: 50.0 mg/kg/injection, schedule: Q04DX003 (ip), vehicle: Klucel (hydroxypropylcellulose) (HPC)
[2] = dose: 100.0 mg/kg/injection, schedule: Q04DX003 (ip), vehicle: Klucel (hydroxypropylcellulose) (HPC)
[3] = dose: 100.0 mg/kg/injection, schedule: Q01DX009 (ip), vehicle: Klucel (hydroxypropylcellulose) (HPC)
[4] = dose: 200.0 mg/kg/injection, schedule: Q01DX009 (ip), vehicle: Klucel (hydroxypropylcellulose) (HPC)
[5] = dose: 200.0 mg/kg/injection, schedule: Q04DX003 (ip), vehicle: Klucel (hydroxypropylcellulose) (HPC)
[6] = dose: 400.0 mg/kg/injection, schedule: Q01DX009 (ip), vehicle: Klucel (hydroxypropylcellulose) (HPC)
[7] = dose: 400.0 mg/kg/injection, schedule: Q04DX003 (ip), vehicle: Klucel (hydroxypropylcellulose) (HPC)
[8] = dose: 100.0 mg/kg/injection, schedule: Q01DX001 (ip), vehicle: carboxymethylcellulose (CMC)
[9] = dose: 200.0 mg/kg/injection, schedule: Q01DX001 (ip), vehicle: carboxymethylcellulose (CMC)
[10] = dose: 400.0 mg/kg/injection, schedule: Q01DX001 (ip), vehicle: carboxymethylcellulose (CMC)
[11] = dose: 100.0 mg/kg/injection, schedule: Q04DX003 (ip), vehicle: saline
[12] = dose: 200.0 mg/kg/injection, schedule: Q04DX003 (ip), vehicle: saline
[13] = dose: 400.0 mg/kg/injection, schedule: Q04DX003 (ip), vehicle: saline
[14] = dose: 100.0 mg/kg/injection, schedule: Q01DX009 (ip), vehicle: saline with Tween-80
[15] = dose: 100.0 mg/kg/injection, schedule: Q04DX003 (ip), vehicle: saline with Tween-80
[16] = dose: 200.0 mg/kg/injection, schedule: Q04DX003 (ip), vehicle: saline with Tween-80
[17] = dose: 200.0 mg/kg/injection, schedule: Q01DX009 (ip), vehicle: saline with Tween-80
[18] = dose: 100.0 mg/kg/injection, schedule: Q01DX001 (ip), vehicle: saline
[19] = dose: 100.0 mg/kg/injection, schedule: Q01DX001 (ip), vehicle: saline with Tween-80
[20] = dose: 200.0 mg/kg/injection, schedule: Q01DX001 (ip), vehicle: saline with Tween-80
[21] = dose: 400.0 mg/kg/injection, schedule: Q01DX001 (ip), vehicle: saline with Tween-80

Measured: T/C

CCNC(Cc1ccccc1)c1ccc(OC)cc1 (configuration not stated)
inactive: dose: 25.0 mg/kg/injection, schedule: Q01DX009 (ip), vehicle: Klucel (hydroxypropylcellulose) (HPC) 97 % of control | dose: 25.0 mg/kg/injection, schedule: Q04DX003 (ip), vehicle: Klucel (hydroxypropylcellulose) (HPC) 110 % of control | dose: 50.0 mg/kg/injection, schedule: Q01DX009 (ip), vehicle: Klucel (hydroxypropylcellulose) (HPC) 94 % of control | [1] 102 % of control | [2] 98 % of control and 102 % of control

Cc1ccc(C(=O)CCCC(=O)O)c(O)c1
inactive: dose: 100.0 mg/kg/injection, schedule: Q01DX001 (ip), vehicle: Klucel (hydroxypropylcellulose) (HPC) 96 % of control | [3] 97 % of control | [2] 102 % of control | dose: 200.0 mg/kg/injection, schedule: Q01DX001 (ip), vehicle: Klucel (hydroxypropylcellulose) (HPC) 104 % of control | [4] 93 % of control | [5] 112 % of control | dose: 400.0 mg/kg/injection, schedule: Q01DX001 (ip), vehicle: Klucel (hydroxypropylcellulose) (HPC) 95 % of control | [6] 92 % of control | [7] 100 % of control

COc1ccc(C(=O)CC(=O)c2ccc(OC)cc2)cc1
inactive: dose: 50.0 mg/kg/injection, schedule: Q01DX001 (ip), vehicle: carboxymethylcellulose (CMC) 92 % of control | [8] 92 % of control | [9] 108 % of control | [10] 94 % of control

COc1cc2c(cc1OC)C1=CC(=O)N3CCCC34OS(=O)OC14CC2 (configuration not stated)
inactive: [3] 97 % of control | [2] 98 % of control | [4] 100 % of control | [5] 96 % of control | [6] 96 % of control | [7] 96 % of control

CCOC(=O)CCN1CCCC1
inactive: dose: 100.0 mg/kg/injection, schedule: Q01DX009 (ip), vehicle: saline 110 % of control | [11] 94 % of control | dose: 200.0 mg/kg/injection, schedule: Q01DX009 (ip), vehicle: saline 106 % of control | [12] 103 % of control | dose: 400.0 mg/kg/injection, schedule: Q01DX009 (ip), vehicle: saline 105 % of control | [13] 103 % of control

O=C(Nc1ccc(NC(=O)C(Cl)Cl)cc1)C(Cl)Cl
inactive: [2] 97 % of control | [5] 101 % of control | [7] 90 % of control

O=C1SC2(CCCCC2)SC1=O
inactive: dose: 50.0 mg/kg/injection, schedule: Q01DX009 (ip), vehicle: saline with Tween-80 110 % of control | [14] 113 % of control | [15] 110 % of control | [16] 100 % of control

CC(C)=Cc1ccccc1
inactive: [14] 98 % of control | [15] 95 % of control | [17] 93 % of control | [16] 87 % of control | dose: 400.0 mg/kg/injection, schedule: Q04DX003 (ip), vehicle: saline with Tween-80 94 % of control

ClCc1ccccc1CCc1ccccc1CCl
inactive: [2] 105 % of control | [5] 94 % of control | [7] 105 % of control

N#CC(=C1c2ccccc2-c2ccccc21)c1ccccc1
inactive: [2] 100 % of control | [5] 105 % of control | [7] 98 % of control

COc1ccc(OC)c(NC(=O)Oc2ccc3ccccc3c2)c1
inactive: dose: 100.0 mg/kg/injection, schedule: Q04DX002 (ip), vehicle: saline 93 % of control | dose: 200.0 mg/kg/injection, schedule: Q04DX002 (ip), vehicle: saline 101 % of control | dose: 400.0 mg/kg/injection, schedule: Q04DX002 (ip), vehicle: saline 96 % of control

O=C(O)C(O)(c1ccccc1)C1CCCCC1 (configuration not stated)
inactive: dose: 100.0 mg/kg/injection, schedule: Q04DX002 (ip), vehicle: saline with Tween-80 91 % of control | dose: 200.0 mg/kg/injection, schedule: Q04DX002 (ip), vehicle: saline with Tween-80 105 % of control | dose: 400.0 mg/kg/injection, schedule: Q04DX002 (ip), vehicle: saline with Tween-80 98 % of control

CC(=O)Oc1ccc(CCN=C(c2ccccc2)c2ccccc2)cc1OC(C)=O
inactive: [18] 107 % of control | dose: 200.0 mg/kg/injection, schedule: Q01DX001 (ip), vehicle: saline 104 % of control | dose: 400.0 mg/kg/injection, schedule: Q01DX001 (ip), vehicle: saline 100 % of control

CCCCNC(=NC)c1ccc(NC(=O)c2ccc(C(=O)Nc3ccc(C(=NC)NCCCC)cc3)cc2)cc1
inactive: dose: 4.4 mg/kg/injection, schedule: Q01DX Z (ip), vehicle: saline 112 % of control | dose: 6.6 mg/kg/injection, schedule: Q01DX Z (ip), vehicle: saline 120 % of control

CC(=O)OCC[N+](C)(C)CCCCCCCCCC[N+](C)(C)CCOC(C)=O
inactive: dose: 3.0 mg/kg/injection, schedule: Q01DX009 (ip), vehicle: saline 100 % of control | dose: 6.25 mg/kg/injection, schedule: Q01DX009 (ip), vehicle: saline 89 % of control | dose: 12.5 mg/kg/injection, schedule: Q01DX009 (ip), vehicle: Klucel (hydroxypropylcellulose) (HPC) 97 % of control

O=CC(CO)CC(C=O)n1cnc2c(=O)[nH]cnc21 (configuration not stated)
inactive: [18] 114 % of control

Nc1cc(Cl)c(N)c(N)n1
inactive: [19] 94 % of control | [20] 109 % of control | [21] 108 % of control

CC1=Nc2c(c(C(C)(C)C)c3nc(C)oc3c2C(C)(C)C)C1
inactive: [19] 97 % of control | [20] 94 % of control | [21] 94 % of control

CN(C)c1ccc2cc(S(=O)(=O)O)cc(O)c2c1
inactive: [14] 102 % of control | [2] 105 % of control | [17] 96 % of control | [5] 95 % of control | dose: 400.0 mg/kg/injection, schedule: Q01DX009 (ip), vehicle: saline with Tween-80 94 % of control | [7] 93 % of control

O=C(Oc1ccccc1C(=O)O)c1ccccc1O
inactive: [1] 90 % of control | [2] 97 % of control and 102 % of control | [5] 114 % of control | [7] 96 % of control

Nc1nc2c(ncn2CCC(N)C(=O)O)c(=O)[nH]1 (configuration not stated)
inactive: [11] 104 % of control | [12] 98 % of control | [13] 107 % of control

CN(C)c1ccc2c(c1)C(=P(c1ccccc1)(c1ccccc1)c1ccccc1)c1ccccc1-2
inactive: dose: 63.0 mg/kg/injection, schedule: Q01DX015 (ip), vehicle: carboxymethylcellulose (CMC) 103 % of control | [8] 97 % of control | dose: 125.0 mg/kg/injection, schedule: Q01DX015 (ip), vehicle: carboxymethylcellulose (CMC) 94 % of control | [9] 101 % of control | dose: 250.0 mg/kg/injection, schedule: Q01DX015 (ip), vehicle: carboxymethylcellulose (CMC) 100 % of control | [10] 90 % of control | dose: 500.0 mg/kg/injection, schedule: Q01DX015 (ip), vehicle: carboxymethylcellulose (CMC) 89 % of control

COC(=O)N1C2CCC(C2=C(C)C)N1C(=O)OC
inactive: [1] 105 % of control | [2] 102 % of control | [5] 94 % of control
